Results reported in PubChem BioAssay AID1963825 (Molecular Pharmacology Branch, DTP, NCI, 2024).

Experiment: Anticancer human tumor 997537-175-T-J1-PDC patient-derived colon adenocarcinoma cell line growth inhibition [POLQ]
Conditions: 997537-175-T-J1-PDC complex spheroid viability, combination with POLQ inhibitors; for IC50: curve of first compound; for viability, T/C: stronger effect = lower value
Method in brief: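 Complex spheroid viability model combining PDC tumour cells with endothelial (HUVEC) and MSC stromal cells. Novobiocin, ART-558 or RP6685 were tested singly and in combination with standard and investigational anticancer drugs. Each was titrated in half-log steps from near clinical Cmax, or from 10 microM where Cmax was unknown.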

[1] = second compound 0.0316 µM, first compound 0.0316 µM
[2] = second compound 0.0316 µM, first compound 0.1 µM
[3] = second compound 0.0316 µM, first compound 0.316 µM
[4] = second compound 0.0316 µM, first compound 1 µM
[5] = second compound 0.0316 µM, first compound 3.16 µM
[6] = second compound 0.0316 µM, first compound 10 µM
[7] = second compound 0.1 µM, first compound 0.0316 µM
[8] = second compound 0.1 µM, first compound 0.1 µM
[9] = second compound 0.1 µM, first compound 0.316 µM
[10] = second compound 0.1 µM, first compound 1 µM
[11] = second compound 0.1 µM, first compound 3.16 µM
[12] = second compound 0.1 µM, first compound 10 µM
[13] = second compound 0.316 µM, first compound 0.0316 µM
[14] = second compound 0.316 µM, first compound 0.1 µM
[15] = second compound 0.316 µM, first compound 0.316 µM
[16] = second compound 0.316 µM, first compound 1 µM
[17] = second compound 0.316 µM, first compound 3.16 µM
[18] = second compound 0.316 µM, first compound 10 µM
[19] = second compound 1 µM, first compound 0.0316 µM
[20] = second compound 1 µM, first compound 0.1 µM
[21] = second compound 1 µM, first compound 0.316 µM
[22] = second compound 1 µM, first compound 1 µM
[23] = second compound 1 µM, first compound 3.16 µM
[24] = second compound 1 µM, first compound 10 µM
[25] = second compound 3.16 µM, first compound 0.0316 µM
[26] = second compound 3.16 µM, first compound 0.1 µM
[27] = second compound 3.16 µM, first compound 0.316 µM
[28] = second compound 3.16 µM, first compound 1 µM
[29] = second compound 3.16 µM, first compound 3.16 µM
[30] = second compound 3.16 µM, first compound 10 µM
[31] = second compound 10 µM, first compound 0.0316 µM
[32] = second compound 10 µM, first compound 0.1 µM
[33] = second compound 10 µM, first compound 0.316 µM
[34] = second compound 10 µM, first compound 1 µM
[35] = second compound 10 µM, first compound 3.16 µM
[36] = second compound 10 µM, first compound 10 µM
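Further: luminescence signal used as a surrogate for viable cells; spheroids exposed to drugs for seven days before readout.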

CC1COCCN1c1cc(-c2ccnn2C)c2ccnc(-c3ccn[nH]3)c2n1 (stereo unspecified) + Cc1cccc(N(C)C(=O)C2C(O)CCN2c2nc(C)cc(C(F)(F)F)c2C#N)c1 gave an IC50 (second compound 0.0316 µM) greater than 10 µM, an IC50 (second compound 0.1 µM) greater than 10 µM and an IC50 (second compound 0.316 µM) of 1.48 µM. For the same molecule, the IC50 (second compound 1 µM) was greater than 10 µM, the IC50 (second compound 3.16 µM) was 0.761 µM and the IC50 (second compound 10 µM) was greater than 10 µM. For the same molecule, the viability, T/C [1] was 88.5%, the viability, T/C [2] was 86.1% and the viability, T/C [3] was 71.5%. It also gave a viability, T/C [4] of 43.5%, a viability, T/C [5] of 45.5% and a viability, T/C [6] of 63.2%. It also gave a viability, T/C [7] of 87.9%, a viability, T/C [8] of 87% and a viability, T/C [9] of 73.4%. It also gave a viability, T/C [10] of 53.4%, a viability, T/C [11] of 53.2% and a viability, T/C [12] of 54.7%. It also gave a viability, T/C [13] of 94.2%, a viability, T/C [14] of 93.5% and a viability, T/C [15] of 74%. The viability, T/C [16] was 50.5%, the viability, T/C [17] was 52.4% and the viability, T/C [18] was 45.3%. It also gave a viability, T/C [19] of 96.6%, a viability, T/C [20] of 84.9% and a viability, T/C [21] of 48.8%. It also gave a viability, T/C [22] of 47.1%, a viability, T/C [23] of 61.4% and a viability, T/C [24] of 65.2%. It also gave a viability, T/C [25] of 107%, a viability, T/C [26] of 80.8% and a viability, T/C [27] of 53.7%. For the same molecule, the viability, T/C [28] was 30.5%, the viability, T/C [29] was 67.1% and the viability, T/C [30] was 48.6%. It also gave a viability, T/C [31] of 72.1%, a viability, T/C [32] of 80.7% and a viability, T/C [33] of 54.8%. It also gave a viability, T/C [34] of 42%, a viability, T/C [35] of 68.9% and a viability, T/C [36] of 50.1%.
CC1COCCN1c1cc(C2(S(C)(=N)=O)CC2)nc(-c2ccnc3[nH]ccc23)n1 (stereo unspecified) + Cc1cccc(N(C)C(=O)C2C(O)CCN2c2nc(C)cc(C(F)(F)F)c2C#N)c1 showed an IC50 (second compound 0.0316 µM) of 9.37 µM, an IC50 (second compound 0.1 µM) greater than 10 µM and an IC50 (second compound 0.316 µM) of 8.26 µM. It also gave an IC50 (second compound 1 µM) of 7.19 µM, an IC50 (second compound 3.16 µM) greater than 10 µM and an IC50 (second compound 10 µM) greater than 10 µM. The viability, T/C [1] was 97.9%, the viability, T/C [2] was 106% and the viability, T/C [3] was 102%. The viability, T/C [4] was 98.8%, the viability, T/C [5] was 83.6% and the viability, T/C [6] was 47.6%. For the same molecule, the viability, T/C [7] was 97.5%, the viability, T/C [8] was 96.6% and the viability, T/C [9] was 101%. For the same molecule, the viability, T/C [10] was 83.6%, the viability, T/C [11] was 63.5% and the viability, T/C [12] was 64.7%. The viability, T/C [13] was 110%, the viability, T/C [14] was 107% and the viability, T/C [15] was 90.8%. It also gave a viability, T/C [16] of 91.6%, a viability, T/C [17] of 57.9% and a viability, T/C [18] of 49.1%. For the same molecule, the viability, T/C [19] was 106%, the viability, T/C [20] was 104% and the viability, T/C [21] was 80.3%. The viability, T/C [22] was 78.9%, the viability, T/C [23] was 44.7% and the viability, T/C [24] was 52.7%. The viability, T/C [25] was 111%, the viability, T/C [26] was 109% and the viability, T/C [27] was 98.5%. It also gave a viability, T/C [28] of 87.3%, a viability, T/C [29] of 78.3% and a viability, T/C [30] of 70.8%. It also gave a viability, T/C [31] of 88.3%, a viability, T/C [32] of 99.8% and a viability, T/C [33] of 86%. It also gave a viability, T/C [34] of 92.7%, a viability, T/C [35] of 68.5% and a viability, T/C [36] of 63.5%.
For COc1ccc([C@@H](O)c2cc(-c3ncnc4cc(N5CCOCC5)ccc34)c(F)cc2Cl)nn1 + Cc1cccc(N(C)C(=O)C2C(O)CCN2c2nc(C)cc(C(F)(F)F)c2C#N)c1, the IC50 (second compound 0.0316 µM) was greater than 10 µM, the IC50 (second compound 0.1 µM) was greater than 10 µM and the IC50 (second compound 0.316 µM) was greater than 10 µM. For the same molecule, the IC50 (second compound 1 µM) was greater than 10 µM, the IC50 (second compound 3.16 µM) was greater than 10 µM and the IC50 (second compound 10 µM) was greater than 10 µM. It also gave a viability, T/C [1] of 102%, a viability, T/C [2] of 108% and a viability, T/C [3] of 103%. For the same molecule, the viability, T/C [4] was 108%, the viability, T/C [5] was 101% and the viability, T/C [6] was 84.3%. For the same molecule, the viability, T/C [7] was 92.3%, the viability, T/C [8] was 111% and the viability, T/C [9] was 99.8%. The viability, T/C [10] was 106%, the viability, T/C [11] was 101% and the viability, T/C [12] was 77.7%. The viability, T/C [13] was 104%, the viability, T/C [14] was 109% and the viability, T/C [15] was 106%. The viability, T/C [16] was 104%, the viability, T/C [17] was 95.3% and the viability, T/C [18] was 82.9%. The viability, T/C [19] was 98.5%, the viability, T/C [20] was 102% and the viability, T/C [21] was 91.7%. It also gave a viability, T/C [22] of 109%, a viability, T/C [23] of 85.7% and a viability, T/C [24] of 69.7%. For the same molecule, the viability, T/C [25] was 80.8%, the viability, T/C [26] was 93.4% and the viability, T/C [27] was 110%. For the same molecule, the viability, T/C [28] was 106%, the viability, T/C [29] was 88.8% and the viability, T/C [30] was 72.7%. It also gave a viability, T/C [31] of 101%, a viability, T/C [32] of 109% and a viability, T/C [33] of 110%. The viability, T/C [34] was 112%, the viability, T/C [35] was 107% and the viability, T/C [36] was 69.8%.
